EPA's ToxRefDB 2

Key:
[1] = system: mouse; conditions: Carcinogenicity; cd1; Oral; Feed; dose end: 18 month; group: systemic; systemic / in life observation / body weight / body weight gain + systemic / in life observation / clinical signs / fur (altered appearance…
[2] = system: rat; conditions: Prenatal developmental toxicity study, sprague dawley, Oral, Gavage/Intubation, dose end: 21 GD
[3] = system: dog; conditions: Chronic toxicity, beagle, Oral, Feed, dose end: 52 week, group: systemic
[4] = system: rat; conditions: Prenatal developmental toxicity study, sprague dawley, Oral, Feed, dose end: 22 GD
[5] = system: mouse; conditions: Subchronic oral toxicity in rodents, cd1, Feed, dose end: 91 day, group: systemic
[6] = system: rat; conditions: Prenatal developmental toxicity study, sprague dawley, Oral, Gavage/Intubation, dose end: 21 GD; remark: listed apart in the source
[7] = system: dog; conditions: Subchronic oral toxicity in nonrodent, beagle, Feed, dose end: 13 week, group: systemic, systemic / hematology / anemia / anemia - hemolytic + systemic / hematology / erythrocyte (rbc) count differential / erythrocyte (rbc) + …
[8] = system: rat; conditions: Subchronic oral toxicity in rodents, sprague dawley, Feed, dose end: 13 week, group: systemic
[9] = system: rat; conditions: Combined chronic toxicity/carcinogenicity, sprague dawley, Oral, Feed, dose end: 24 month, group: systemic
[10] = system: rat; conditions: Subchronic oral toxicity in rodents, other, Feed, dose end: 13 week, group: systemic
[11] = system: rabbit; conditions: Prenatal developmental toxicity study, new zealand white, Oral, Gavage/Intubation, dose end: 28 GD
[12] = system: rat; conditions: Subchronic oral toxicity in rodents, sprague dawley, [Not Specified], dose end: 90 day, group: systemic
[13] = system: rat; conditions: Subchronic oral toxicity in rodents, sprague dawley, Feed, dose end: 14 week, group: systemic
[14] = system: dog; conditions: Chronic toxicity, beagle, Oral, Feed, dose end: 52 week, group: systemic; remark: listed apart in the source
[15] = system: rat; conditions: Subchronic oral toxicity in rodents, other, Feed, dose end: 3 month, group: systemic, systemic / clinical chemistry / alkaline phosphatase (alp/alk) / alkaline phosphatase (alp/alk) + systemic / in life observation / body …
[16] = system: rat; conditions: Combined chronic toxicity/carcinogenicity, sprague dawley, Oral, Feed, dose end: 24 month, group: systemic; remark: listed apart in the source
[17] = system: rat; conditions: Multigenerational reproductive toxicity study, other, Oral, Feed, dose end: 2 generation
[18] = system: dog; conditions: Subchronic oral toxicity in nonrodent, beagle, Feed, dose end: 13 week, group: systemic
[19] = system: mouse; conditions: Carcinogenicity, other, Oral, Feed, dose end: 18 month, group: systemic
[20] = system: rabbit; conditions: Prenatal developmental toxicity study, other, Oral, Gavage/Intubation, dose end: 19 GD
[21] = system: rat; conditions: Prenatal developmental toxicity study, other, Oral, Gavage/Intubation, dose end: 15 GD
[22] = group: developmental, systemic / in life observation / body weight / fetal weight
[23] = group: maternal, systemic / in life observation / body weight / body weight + systemic / in life observation / body weight / body weight gain + systemic / in…
[24] = systemic / hematology / erythrocyte (rbc) count differential / erythrocyte (rbc) + systemic / hematology / heinz body / heinz body + …
[25] = systemic / organ weight / liver / absolute + systemic / organ weight / liver / relative to body weight + systemic / organ weight / liver / …
[26] = group: maternal, systemic / in life observation / body weight / body weight gain
[27] = systemic / in life observation / body weight / body weight + systemic / in life observation / body weight / body weight gain + systemic / in…
[28] = systemic / pathology microscopic / spleen / pigmentation
[29] = systemic / pathology microscopic / spleen / hematopoietic cell proliferation + systemic / pathology microscopic / spleen / pigmentation
[30] = systemic / hematology / erythrocyte (rbc) count differential / erythrocyte (rbc) + systemic / hematology / hematocrit (hct) / hematocrit (…
[31] = group: developmental, developmental / developmental malformation / bone / incomplete ossification + systemic / in life observation / body weight / fetal weight
[32] = group: maternal, systemic / in life observation / body weight / body weight gain + systemic / in life observation / food consumption / food consumption
[33] = group: maternal, systemic / in life observation / body weight / body weight gain + systemic / in life observation / food consumption / food consumption + …
[34] = systemic / hematology / methemoglobin / methemoglobin
[35] = systemic / in life observation / body weight / body weight gain
[36] = systemic / in life observation / body weight / body weight gain + systemic / in life observation / body weight / body weight + systemic / in…
[37] = systemic / hematology / anemia / anemia - nos + systemic / clinical chemistry / cholesterol / cholesterol + systemic / clinical chemistry / …
[38] = systemic / pathology microscopic / liver / hypertrophy
[39] = systemic / pathology microscopic / liver / hypertrophy + systemic / clinical chemistry / albumin / albumin + systemic / clinical chemistry…
[40] = group: offspring, developmental / developmental landmark / eye opening / eye opening + systemic / in life observation / body weight / offspring (pup) weight
[41] = group: parental, systemic / organ weight / liver / relative to body weight
[42] = systemic / clinical chemistry / alkaline phosphatase (alp/alk) / alkaline phosphatase (alp/alk) + systemic / organ weight / liver / absolute…
[43] = systemic / organ weight / liver / relative to body weight
[44] = systemic / in life observation / body weight / body weight + systemic / organ weight / spleen / relative to body weight
[45] = group: developmental, developmental / developmental malformation / bone / full supernumerary
[46] = group: developmental, developmental / developmental malformation / bone / full supernumerary + developmental / developmental malformation / bone / extra …
[47] = group: developmental, developmental / developmental malformation / bone / incomplete ossification
[48] = group: developmental, developmental / developmental malformation / bone / incomplete ossification + developmental / developmental malformation / bone / dumbbell …

With `COC(=O)N(C(=O)N1CO[C@@]2(C(=O)OC)Cc3cc(Cl)ccc3C2=N1)c1ccc(OC(F)(F)F)cc1` [Indoxacarb] the LEL [1] was 13.8 mg/kg/day, the LOAEL [1] was 13.8 mg/kg/day and the NEL [1] was 2.63 mg/kg/day. For the same compound, the NOAEL [1] was 2.63 mg/kg/day, the LEL [2, 22] was 500 mg/kg/day and the LOAEL [2, 22] was greater than 1000 mg/kg/day. For the same compound, the NEL [2, 22] was 100 mg/kg/day, the NOAEL [2, 22] was no less than 1000 mg/kg/day and the LEL [2, 23] was 100 mg/kg/day. For the same compound, the LOAEL [2, 23] was 100 mg/kg/day, the NEL [2, 23] was 10 mg/kg/day and the NOAEL [2, 23] was 10 mg/kg/day. It also gave an LOAEL [3, 24] of 18 mg/kg/day, an NOAEL [3, 24] of 2.3 mg/kg/day and an LEL [3, 25] of 1.3 mg/kg/day. The NEL [3, 25] was less than 1.3 mg/kg/day, the LEL [4, 22] was 4.14 mg/kg/day and the LOAEL [4, 22] was 4.14 mg/kg/day. For the same compound, the NEL [4, 22] was 2.18 mg/kg/day, the NOAEL [4, 22] was 2.18 mg/kg/day and the LOAEL [4, 23] was 2.18 mg/kg/day. The NOAEL [4, 23] was 1.11 mg/kg/day, the LEL [4, 26] was 1.11 mg/kg/day and the NEL [4, 26] was less than 1.11 mg/kg/day. The LOAEL [5, 27] was 30 mg/kg/day, the NOAEL [5, 27] was 16 mg/kg/day and the LEL [5, 28] was 12 mg/kg/day. It also gave an NEL ([5]; systemic / pathology microscopic / spleen / pigmentation + systemic / pathology microscopic / spleen / hyperplasia) of 5.5 mg/kg/day, an LEL [6, 22] of 4 mg/kg/day and an LOAEL [6, 22] of 4 mg/kg/day. The NEL [6, 22] was 2 mg/kg/day, the NOAEL [6, 22] was 2 mg/kg/day and the LEL [6, 23] was 4 mg/kg/day. For the same compound, the LOAEL [6, 23] was 4 mg/kg/day, the NEL [6, 23] was 2 mg/kg/day and the NOAEL [6, 23] was 2 mg/kg/day. For the same compound, the LEL [7] was 19 mg/kg/day, the LOAEL [7] was 19 mg/kg/day and the NEL [7] was 5 mg/kg/day. It also gave an NOAEL [7] of 5 mg/kg/day, an LOAEL [8, 27] of 3.78 mg/kg/day and an NOAEL [8, 27] of 2.13 mg/kg/day. The LEL [8, 29] was 0.76 mg/kg/day, the NEL [8, 29] was less than 0.76 mg/kg/day and the LOAEL [9, 30] was 2.13 mg/kg/day. For the same compound, the NOAEL [9, 30] was 1.04 mg/kg/day, the LEL [9, 28] was 0.798 mg/kg/day and the LEL [10, 30] was 1.5 mg/kg/day. The LOAEL [10, 27] was 6.25 mg/kg/day, the NEL [10, 27] was 0.75 mg/kg/day and the NOAEL [10, 27] was 3 mg/kg/day. For the same compound, the LEL [11, 31] was 1000 mg/kg/day, the LOAEL [11, 31] was 1000 mg/kg/day and the NEL [11, 31] was 500 mg/kg/day. It also gave an NOAEL [11, 31] of 500 mg/kg/day, an LOAEL [11, 32] of 1000 mg/kg/day and an LEL [11, 33] of 1000 mg/kg/day. The NEL [11, 33] was 500 mg/kg/day, the NOAEL [11, 33] was 500 mg/kg/day and the LEL [12, 34] was 0.56 mg/kg/day. For the same compound, the NEL [12, 34] was less than 0.56 mg/kg/day, the LOAEL [12, 27] was 4.1 mg/kg/day and the NOAEL [12, 27] was 1.7 mg/kg/day. The LEL [13, 35] was 4.9 mg/kg/day, the LOAEL [13, 35] was 7.5 mg/kg/day and the NEL [13, 36] was 2.5 mg/kg/day. It also gave an NOAEL [13, 36] of 3.7 mg/kg/day.

Compound `CC1=NNC(=O)N(/N=C/c2cccnc2)C1` [Pymetrozine] has an LEL ([14]; systemic / clinical chemistry / cholesterol / cholesterol + systemic / organ weight / liver / absolute + systemic / organ weight / liver / …) of 5.33 mg/kg/day, an NEL [14, 37] of 0.57 mg/kg/day and an NOAEL [14, 37] of 5.33 mg/kg/day. The LOAEL ([14]; systemic / hematology / anemia / anemia - nos + systemic / pathology microscopic / intestine large / [other] + systemic / pathology …) was 27.8 mg/kg/day, the LEL [15] was 360 mg/kg/day and the LOAEL [15] was 360 mg/kg/day. It also gave an NOAEL [15] of 32.5 mg/kg/day, an LEL [16, 38] of 3.76 mg/kg/day and an LOAEL [16, 38] of 3.76 mg/kg/day. For the same compound, the NEL [16, 39] was 0.377 mg/kg/day, the NOAEL [16, 39] was 0.377 mg/kg/day and the LEL [17, 40] was 100 mg/kg/day. For the same compound, the LOAEL [17, 40] was 100 mg/kg/day, the NEL [17, 40] was 10 mg/kg/day and the NOAEL [17, 40] was 10 mg/kg/day. It also gave an LEL [17, 41] of 1.7 mg/kg/day, an NEL [17, 41] of less than 1.7 mg/kg/day and an LOAEL ([17]; group: parental, systemic / pathology microscopic / liver / hypertrophy) of 13.9 mg/kg/day. It also gave an NOAEL ([17]; group: parental, systemic / pathology microscopic / liver / hypertrophy + systemic / in life observation / body weight / body weight + systemic / in life …) of 1.4 mg/kg/day, an LOAEL [18, 42] of 14 mg/kg/day and an NOAEL [18, 42] of 3.12 mg/kg/day. It also gave an LEL [18, 43] of 3.12 mg/kg/day, an NEL [18, 43] of less than 3.12 mg/kg/day and an NOAEL ([19]; systemic / in life observation / body weight / body weight + systemic / organ weight / liver / relative to body weight + systemic / …) of 12 mg/kg/day. The LEL [19, 44] was 1.2 mg/kg/day, the NEL [19, 44] was less than 1.2 mg/kg/day and the LOAEL ([19]; systemic / organ weight / liver / relative to body weight + systemic / pathology microscopic / liver / hypertrophy + systemic / pathology …) was 250 mg/kg/day. It also gave an LEL [20, 45] of 75 mg/kg/day, an LOAEL [20, 45] of 75 mg/kg/day and an NEL [20, 46] of 10 mg/kg/day. It also gave an NOAEL [20, 46] of 10 mg/kg/day, an LEL [20, 33] of 75 mg/kg/day and an LOAEL [20, 33] of 75 mg/kg/day. It also gave an NEL [20, 33] of 10 mg/kg/day, an NOAEL [20, 33] of 10 mg/kg/day and an LEL [21, 47] of 30 mg/kg/day. It also gave an NEL [21, 47] of less than 30 mg/kg/day, an LOAEL [21, 48] of 300 mg/kg/day and an NOAEL [21, 48] of 100 mg/kg/day. It also gave an LEL [21, 32] of 100 mg/kg/day, an LOAEL [21, 32] of 100 mg/kg/day and an NEL [21, 32] of 30 mg/kg/day. For the same compound, the NOAEL [21, 32] was 30 mg/kg/day.
